Experiment: Malvern laser diffraction particle sizing
Format: physicochemical
Conditions: Malvern Mastersizer X; dispersant iso octane/lecithin 0.05% w/w; sonicated 3 minutes; one analysis per sample
Method: Particles of Examples 1A and 1B were analysed using Malvern laser diffraction particle sizing. Instrument: Malvern Mastersizer X Lens: 45 mm Reverse Fourier Analysis: 0607 presentation code Dispersant: Iso Octane/Lecithin 0.05% w/w Pre dispersion: Sonicate for 3 minutes Obscuration: 10% to 16% One analysis per sample was carried out. The median particle size (D50), particle size at 90% undersize (D90) and particle size at 10% undersize (D10) were used as responses to characterise the medium, course, and fine particles.

CCC(=O)O[C@]1(C(=O)SCF)[C@H](C)C[C@H]2[C@@H]3C[C@H](F)C4=CC(=O)C=C[C@]4(C)[C@@]3(F)[C@@H](O)C[C@@]21C [Example 1A, fluticasone propionate]
D10 (particle size at 10% undersize): 1.01 μm
D50 (median particle size): 2.68 μm
D90 (particle size at 90% undersize): 5.93 μm

CCC(=O)O[C@]1(C(=O)SCF)[C@H](C)C[C@H]2[C@@H]3C[C@H](F)C4=CC(=O)C=C[C@]4(C)[C@@]3(F)[C@@H](O)C[C@@]21C [Example 1B, fluticasone propionate]
D10 (particle size at 10% undersize): 1.77 μm
D50 (median particle size): 3.65 μm
D90 (particle size at 90% undersize): 7.24 μm

— US20040045805A1, “Novel process for preparing and harvesting crystalline particles” (priority 2000, published 2004)
